Measured values published in patent US20040121316A1 (priority 2002, published 2004).
Where two headings read alike, the source gives them in different places. Peptide text beside a SMILES is read from it. * marks the point of attachment. MeOSuc = COC(=O)CCC(=O)*; CH2Cl = ClC*

Assays:
[1] = not given; remark: listed apart in the source
[2] = tested on: PBMC in human whole blood
[3] = not given; remark: listed apart in the source
MT-2 cells [4] = tested on: MT-2 cells
[5] = tested on: MT-2 cells, stimulated and quiescent PBMC
[6] = tested on: recombinant HIV-1 10I 48V 71V 82A 90M; assay: microbe, parasite or virus in culture; type: cell-based; conditions: for Fold Change in EC50 Relative to WT HIV-1: protease mutations 10I 48V 71V 82A 90M; for EC50: Human immunodeficiency virus 1, MT4, read-out: Cell-based assay (MT-4) EC50/nM 48V 82A 90M
[7] = tested on: recombinant HIV-1 10R 46I 82T 84V; assay: Cross-Resistance Profile Assay; type: cell-based; conditions: protease mutations 10R 46I 82T 84V
[8] = tested on: recombinant HIV-1 10I 48V 54V 82A; assay: microbe, parasite or virus in culture; type: cell-based; conditions: for EC50: Human immunodeficiency virus 1, MT4, read-out: Cell-based assay (MT-4) EC50/nM 48V 54V 82A
mutant HIV-1 I84V/L90M = assay: Resistance Evaluation, I84V/L90M fold change; type: cell-based; conditions: EC50 of mutant I84V/L90M relative to wild type; class symbols
[9] = tested on: recombinant HIV-1 46I 47V 50V; assay: microbe, parasite or virus in culture; type: cell-based; conditions: for Fold Change in EC50 Relative to WT HIV-1: protease mutations 46I 47V 50V; for EC50: Human immunodeficiency virus 1, MT4, read-out: Cell-based assay (MT-4) EC50/nM 47I 50V
[10] = tested on: recombinant HIV-1 48V 54V 71V 82S; assay: microbe, parasite or virus in culture; type: cell-based; conditions: for Fold Change in EC50 Relative to WT HIV-1: protease mutations 48V 54V 71V 82S; for EC50: Human immunodeficiency virus 1, MT4, read-out: Cell-based assay (MT-4) EC50/nM 48V 54V 82S
[11] = tested on: recombinant HIV-1 30N 50S 82I 88D; assay: microbe, parasite or virus in culture; type: cell-based; conditions: for EC50: Human immunodeficiency virus 1, MT4, read-out: Cell-based assay (MT-4) EC50/nM 30N 82I 88D
[12] = tested on: recombinant HIV-1 10F 46I 71V 82T 90M; assay: Cross-Resistance Profile Assay; type: cell-based; conditions: protease mutations 10F 46I 71V 82T 90M
[13] = tested on: recombinant HIV-1 strains with resistance mutations in the protease gene; assay: Cross-Resistance Profile Assay, whole panel; type: cell-based
[14] = tested on: wild-type HIV-1 strain IIIB; assay: microbe, parasite or virus in culture; type: cell-based; conditions: Human immunodeficiency virus 1, IIIB
[15] = tested on: recombinant HIV-1 54V 71V 82S; assay: Cross-Resistance Profile Assay; type: cell-based; conditions: protease mutations 54V 71V 82S
[16] = tested on: recombinant HIV-1 46I 84A; assay: Cross-Resistance Profile Assay; type: cell-based; conditions: protease mutations 46I 84A
WT HIV-1 = assay: microbe, parasite or virus in culture; type: cell-based
[17] = molecular target: porcine liver carboxylesterase (PLCE) (Sus scrofa, UniProt Q29550); type: biochemical
Sequence of porcine liver carboxylesterase (PLCE) (Q29550 whole entry): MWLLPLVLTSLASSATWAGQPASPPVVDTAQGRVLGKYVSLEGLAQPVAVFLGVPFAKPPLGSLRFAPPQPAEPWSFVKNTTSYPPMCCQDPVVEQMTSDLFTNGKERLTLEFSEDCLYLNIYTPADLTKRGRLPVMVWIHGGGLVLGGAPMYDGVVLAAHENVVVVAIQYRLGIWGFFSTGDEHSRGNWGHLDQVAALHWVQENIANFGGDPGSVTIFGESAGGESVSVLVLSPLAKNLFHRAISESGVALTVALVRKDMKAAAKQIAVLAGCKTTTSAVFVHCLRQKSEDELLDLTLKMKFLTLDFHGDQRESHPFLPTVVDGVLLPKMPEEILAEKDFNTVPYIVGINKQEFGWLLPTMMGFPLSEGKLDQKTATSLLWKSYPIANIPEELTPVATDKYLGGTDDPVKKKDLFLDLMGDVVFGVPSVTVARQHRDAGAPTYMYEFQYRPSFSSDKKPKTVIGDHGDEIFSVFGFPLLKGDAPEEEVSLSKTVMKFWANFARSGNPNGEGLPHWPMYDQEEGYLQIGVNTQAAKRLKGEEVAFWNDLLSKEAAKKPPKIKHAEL

[18] = tested on: recombinant HIV-1 10I 84V 71V 73S 90M; assay: microbe, parasite or virus in culture; type: cell-based; conditions: for EC50: Human immunodeficiency virus 1, MT4, read-out: Cell-based assay (MT-4) EC50/nM 84V 90M
HIV-1 protease 84V90M = molecular target: T1, HIV-1 protease 84V90M (Human immunodeficiency virus type 1 group M subtype B, UniProt P04585, I572V/L578M); assay: Enzymatic assay, IC50 against 84V90M mutant protease; type: biochemical
T1 construct: synthetic hexapeptide substrate cleavage by HIV-1 protease

[19] = molecular target: T2, recombinant HIV-1 protease (Human immunodeficiency virus type 1 group M subtype B, UniProt P04585); assay: biochemical; conditions: Ki
T2 construct: Enzyme: recombinant HIV-1 protease expressed in E.Coli; purchased Bachem California, Inc. H-9040; host or cells: E. coli

MT-2 cells [20] = tested on: MT-2 cells; remark: listed apart in the source
GS-7340 Ester Hydrolase = GS-7340 Ester Hydrolase (Homo sapiens, UniProt P10619); type: biochemical
Sequence of GS-7340 Ester Hydrolase (P10619 29-480): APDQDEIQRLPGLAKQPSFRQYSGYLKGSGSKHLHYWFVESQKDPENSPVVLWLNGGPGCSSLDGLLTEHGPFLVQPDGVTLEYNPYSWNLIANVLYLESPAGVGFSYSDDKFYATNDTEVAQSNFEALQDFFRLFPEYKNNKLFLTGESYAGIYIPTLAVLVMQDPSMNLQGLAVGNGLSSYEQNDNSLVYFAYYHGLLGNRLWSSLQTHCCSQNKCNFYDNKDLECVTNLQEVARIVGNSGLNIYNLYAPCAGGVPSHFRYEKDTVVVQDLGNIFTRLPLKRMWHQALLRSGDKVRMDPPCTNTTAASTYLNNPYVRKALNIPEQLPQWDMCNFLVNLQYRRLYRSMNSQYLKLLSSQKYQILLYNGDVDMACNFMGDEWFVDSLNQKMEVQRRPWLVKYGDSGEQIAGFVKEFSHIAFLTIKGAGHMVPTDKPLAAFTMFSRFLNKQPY

[21] = molecular target: human leukocyte elastase (huLE) (Homo sapiens, UniProt P08246); assay: biochemical; conditions: IC50 (μM) huLE
Sequence of human leukocyte elastase (huLE) (P08246 30-267): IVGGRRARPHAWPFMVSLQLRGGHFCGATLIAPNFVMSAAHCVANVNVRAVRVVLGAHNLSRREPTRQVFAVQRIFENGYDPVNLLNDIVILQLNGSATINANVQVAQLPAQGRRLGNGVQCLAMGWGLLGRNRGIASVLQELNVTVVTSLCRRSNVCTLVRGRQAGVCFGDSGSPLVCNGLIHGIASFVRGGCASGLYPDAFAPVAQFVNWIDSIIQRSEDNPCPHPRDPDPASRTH

[22] = XTT-based cytopathic assay, read-out: EC50 WT HIV-1
[23] = resistance = 5-fold and higher change in EC50 of the mutant relative to wild-type, 11 mutant viruses
[24] = Human immunodeficiency virus 1, MT4, read-out: Cell-based assay (MT-4) EC50/nM WT

CCOC(=O)C(C)OP(=O)(COc1ccc(C[C@H](NC(=O)O[C@H]2CO[C@H]3OCC[C@H]32)[C@H](O)CN(CC(C)C)S(=O)(=O)c2ccc(OC)cc2)cc1)Oc1ccccc1 (stereo partly drawn) [GS-17394]
PBMC Extract T1/2: 15 min
PBMC Extract T1/2, min: 15 min
Dog Plasma T1/2 [1]: 144 min
Dog Plasma T1/2, min [1]: 144 min
Intracellular Acid Metabolite Concentration [2]: 629 ± 303 µM
Intracellular Concentration, Acid Metabolite [2]: 629 ± 303 µM
Intracellular Concentration, Prodrug [2]: 69 ± 85 µM
Intracellular Prodrug [2]: 69 ± 85 µM
Intracellular Prodrug and Metabolites Concentration, Total [2]: 698 ± 301 µM
Intracellular Prodrug and Metabolites Total [2]: 698 ± 301 µM
Human Serum T1/2 [3]: 49 min
Human Serum T1/2, min [3]: 49 min
Metabolism (conversion to acid metabolites), dependence on concentration (MT-2 cells [4]): independent
intracellular metabolites formed [5]: Metabolite LX
Cell-Associated PI, Prodrug (quiescent PBMC): 0 pmol/mln cells
composition of metabolites in PBMC (quiescent PBMC): only metabolite LX

CCC[C@@]1(CCc2ccccc2)CC(O)=C([C@H](CC)c2cccc(NS(=O)(=O)c3ccc(C(F)(F)F)cn3)c2)C(=O)O1 [Tipranavir, reference compound]
Fold Change in EC50 Relative to WT HIV-1 [6]: 0.3 fold
Fold Change in EC50 Relative to WT HIV-1 [7]: 5 fold
Fold Change in EC50 Relative to WT HIV-1 ([8]; protease mutations 10I 48V 54V 82A): 0.4 fold
I84V/L90M fold change (mutant HIV-1 I84V/L90M): + (>3 to ≦10)
Fold Change in EC50 Relative to WT HIV-1 [9]: 0.5 fold
Fold Change in EC50 Relative to WT HIV-1 [10]: 2 fold
Fold Change in EC50 Relative to WT HIV-1 ([11]; protease mutations 30N 50S 82I 88D): 0.5 fold
Fold Change in EC50 Relative to WT HIV-1 [12]: 3 fold
Total No. of Resistant Viruses ([13]; {}): 1
EC50 [14]: 50 to 500 nM
Fold Change in EC50 Relative to WT HIV-1 [15]: 3.5 fold
Fold Change in EC50 Relative to WT HIV-1 [16]: 1 fold

CCCCOC(=O)C(C)NP(=O)(COc1ccc(CC(NC(=O)OC2COC3OCCC23)C(O)CN(CC(C)C)S(=O)(=O)c2ccc(OC)cc2)cc1)NC(C)C(=O)OCCCC (stereo not drawn) [GS-16503]
PBMC Extract T1/2: 2 min
PBMC Extract T1/2, min: 2 min
Dog Plasma T1/2 [1]: 368 min
Dog Plasma T1/2, min [1]: 368 min
Intracellular Acid Metabolite Concentration [2]: 279 ± 47 µM
Intracellular Concentration, Acid Metabolite [2]: 279 ± 47 µM
Intracellular Concentration, Prodrug [2]: 61 ± 40 µM
Intracellular Prodrug [2]: 61 ± 40 µM
Intracellular Prodrug and Metabolites Concentration, Total [2]: 340 ± 35 µM
Intracellular Prodrug and Metabolites Total [2]: 340 ± 35 µM
Major Intracellular Metabolites [2]: X, GS-8373
EC50 (WT HIV-1; [22]): 16 nM
Human Serum T1/2 [3]: >>400 min
Human Serum T1/2, min [3]: >>400 min
Total No. of Resistant Viruses [13, 23]: 0
Metabolism (conversion to acid metabolites), dependence on concentration (MT-2 cells [4]): concentration-dependent
increase in conversion to acid metabolites at 1 μM vs. 10 μM (MT-2 cells [4]): 3 fold
intracellular metabolites formed [5]: Metabolite X and GS-8373
Cell-Associated PI, Prodrug (quiescent PBMC): 0 pmol/mln cells
composition of metabolites in PBMC (quiescent PBMC): equimolar mixture of metabolite X and GS-8373

CCOC(=O)C(C)NP(=O)(COc1ccc(CC(NC(=O)OC2COC3OCCC23)C(O)CN(CC(C)C)S(=O)(=O)c2ccc(OC)cc2)cc1)Oc1ccccc1 (stereo not drawn) [GS-16571]
PBMC Extract T1/2: 49 min
PBMC Extract T1/2, min: 49 min
Dog Plasma T1/2 [1]: 126 min
Dog Plasma T1/2, min [1]: 126 min
Intracellular Acid Metabolite Concentration [2]: 319 ± 112 µM
Intracellular Concentration, Acid Metabolite [2]: 319 ± 112 µM
Intracellular Concentration, Prodrug [2]: 137 ± 62 µM
Intracellular Prodrug [2]: 137 ± 62 µM
Intracellular Prodrug and Metabolites Concentration, Total [2]: 432 ± 208 µM
Intracellular Prodrug and Metabolites Total [2]: 432 ± 208 µM
Major Intracellular Metabolites [2]: X, GS-8373
EC50 (WT HIV-1; [22]): 22 nM
Human Serum T1/2 [3]: 110 min
Human Serum T1/2, min [3]: 110 min
Total No. of Resistant Viruses [13, 23]: 0
intracellular metabolites formed [5]: Metabolite X and GS-8373

COC(=O)CCC(=O)N[C@@H](C)C(=O)N[C@@H](C)C(=O)N1CCC[C@H]1C(=O)N[C@H](C(=O)CCl)C(C)C [MeOSuc-Ala-Ala-Pro-Val-CMK] (MeOSuc-AAPV-CH2Cl)
IC50 ([17]; read-out: IC50 (μM) PLCE): > 1000 µM

CCOP(=O)(COc1ccc(CC2C(O)C(O)C(Cc3ccc(OC)cc3)N(Cc3cccc(N)c3)C(=O)N2Cc2cccc(N)c2)cc1)OCC (stereo not drawn) [OCH3/Ph-mNH2/OCH2PO3Et2]
EC50 [6]: 102 nM
EC50 [8]: 202 nM
EC50 [18]: 535 nM
EC50 (WT HIV-1; [24]): 63 nM
EC50 [9]: 36 nM
EC50 [10]: 117 nM
EC50 [11]: 18 nM
IC50 (HIV-1 protease 84V90M): 56 nM

CCOP(=O)(CCNC(=O)Oc1ccc(CC2C(O)C(O)C(Cc3ccc(OC)cc3)N(Cc3ccc(O)cc3)C(=O)N2Cc2ccc(O)cc2)cc1)OCC (stereo not drawn) [OCH3/Ph-pOH/OCONH(CH2)2PO3Et2]
EC50 [6]: 55 nM
EC50 [8]: 74 nM
EC50 [18]: 495 nM
EC50 (WT HIV-1; [24]): 33 nM
EC50 [9]: 223 nM
EC50 [10]: 51 nM
EC50 [11]: 31 nM
IC50 (HIV-1 protease 84V90M): 49 nM

COC(=O)CCC(=O)N[C@@H](C)C(=O)N[C@@H](C)C(=O)N1CCC[C@H]1C(=O)N[C@@H](C)C(=O)CCl [MeOSuC-Ala-Ala-Pro-Ala-CMK] (MeOSuc-AAPA-CH2Cl)
IC50 ([17]; read-out: IC50 (μM) PLCE): > 1000 µM

Cc1cccc(C)c1OCC(=O)N[C@@H](Cc1ccccc1)[C@@H](O)C[C@H](Cc1ccccc1)NC(=O)[C@H](C(C)C)N1CCCNC1=O [Lopinavir, reference compound]
Fold Change in EC50 Relative to WT HIV-1 [6]: 4.5 fold
Fold Change in EC50 Relative to WT HIV-1 [7]: 11 fold
Fold Change in EC50 Relative to WT HIV-1 ([18]; protease mutations 10I 84V 71V 73S 90M): 11 fold
I84V/L90M fold change (mutant HIV-1 I84V/L90M): ++ (>10 to ≦30)
Fold Change in EC50 Relative to WT HIV-1 [9]: 19 fold
Fold Change in EC50 Relative to WT HIV-1 [10]: 60 fold
Fold Change in EC50 Relative to WT HIV-1 [12]: 7.5 fold
Ki [19]: 0.01 to 0.1 nM
Total No. of Resistant Viruses ([13]; {}): 6
EC50 [14]: < 50 nM
Fold Change in EC50 Relative to WT HIV-1 [16]: 9 fold

COc1ccc(S(=O)(=O)N(CC(C)C)C[C@@H](O)[C@H](Cc2ccc(P(=O)(O)O)cc2)NC(=O)O[C@H]2CO[C@H]3OCC[C@H]32)cc1 [Compound 27]
CC50 (MT-2 cells [20]): > 100 µM

O=c1oc(Cl)c(Cl)c2ccccc12 [3,4-dichloroisocoumarin]
Relative Activity (%) (GS-7340 Ester Hydrolase; 1 µM): 100%
Relative Activity (%) (GS-7340 Ester Hydrolase; 10 µM): 25%
Relative Activity (%) (GS-7340 Ester Hydrolase; 100 µM): 5%
Relative Activity (%) (GS-7340 Ester Hydrolase; 1000 µM): <2%
IC50 [21]: 3 µM
IC50 [17]: 250 µM
IC50 ([17]; read-out: IC50 (μM) PLCE): 250 µM

CCOP(=O)(OCC)c1ccc(CC(NC(=O)OC2COC3OCCC23)C(O)CN(CC(C)C)S(=O)(=O)c2ccc(OC)cc2)cc1 (stereo not drawn) [Compound 28]
CC50 (MT-2 cells [20]): 70 µM
